In US11020405B2, “Method for prevention or treatment of diabetic complications” (KANGWON NATIONAL UNIVERSITY UNIVERSITY-INDUSTRY COOPERATION …, priority 2017, dated 2021):

Columns and labels:
[1] = Body weight and blood glucose monitoring in diabetic mice; format: in vivo, C57BL/6 mice
Protocol: FIGS. 19A and 19B show the preventive effects of midazolam against hyperglycemia-induced endothelial apoptosis in the aortic endothelium of diabetic mice. Six-week-old male C57BL/6 mice were administered with streptozotocin (150 mg/kg body weight) to give diabetic mouse models. One week after streptozotocin injection, diabetic mice were administered midazolam (10 mg/kg) by intraperitoneal injection daily for 14 days. The body weight of mice were measure in normal (20.7±0.1 g), diabetic (17.1±0.1 g), and midazolam supplemented diabetic mice (17.0±0.3 g). Blood glucose levels were also monitored in normal (124.0±12.0 mg/dL), diabetic (509.0±1.0 mg/dL), and midazolam supplemented diabetic mice (515.7±3.4 mg/dL). Aorta of mice were dissected and cut longitudinally to expose the endothelium. And then aortic segments were fixed for 15 min with 1% (w/v) paraformaldehyde in PBS, followed by treatment for 30 min with 70% (v/v) ethanol on ice. Apoptotic cells were stained by terminal deoxynucleotidyl transferase dUTP nick end labeling (TUNEL) with nuclear counterstaining with DAPI and visualized by confocal microscopy in the aortic endothelium. Representative images of endothelial apoptosis in aorta are shown in additional FIG. 19A. Scale bar, 100 μm. The results of endothelial apoptosis quantitatively analyzed by measurement of TUNEL staining in the aorta are shown in additional FIG. 19B (n=4 for normal and diabetic, n=6 for diabetic+Midazolam).
FIGS. 20A and 20B show the preventive effects of midazolam against hyperglycemia-induced renal vascular leakage in diabetic mice. Six-week-old male C57BL/6 mice were administered with streptozotocin (150 mg/kg body weight) to give diabetic mouse models. Two weeks after streptozotocin injection, diabetic mice were administered 10 mg/kg midazolam by intraperitoneal injection daily for 2 days, and vascular leakage was investigated. The body weight of mice were measure in normal (19.9±0.3 g), diabetic (17.7±0.3 g), and midazolam supplemented diabetic mice (17.7±0.3 g). Blood glucose levels were also monitored in normal (123.5±6.5 mg/dL), diabetic (505.0±89.0 mg/dL), and midazolam supplemented diabetic mice (500.3±63.3 mg/dL). The mice were anesthetized with 3% isoflurane, and 1.25 mg of FITC-dextran was injected into the right ventricle of each mouse and allowed to circulate for 5 min. […] The results of vascular leakage quantitatively analyzed by measuring the fluorescence intensity of FITC-dextran in the kidneys are shown in additional FIG. 20B. […]
FIGS. 21A and 21B show the preventive effects of midazolam against hyperglycemia-induced pulmonary vascular leakage in diabetic mice. […] Blood glucose levels were also monitored in normal (123.5±6.5 mg/dL), diabetic (505.0±89.0 mg/dL), and midazolam supplemented diabetic mice (500.3±63.3 mg/dL). […]

lungs of diabetic mice = experiment: Hyperglycemia-induced pulmonary vascular leakage in diabetic mice (FITC-dextran); format: in vivo, C57BL/6 mice; conditions: 10 mg/kg midazolam intraperitoneal daily for 2 days (FIG. 21)
Protocol: FIGS. 21A and 21B show the preventive effects of midazolam against hyperglycemia-induced pulmonary vascular leakage in diabetic mice. Six-week-old male C57BL/6 mice were administered with streptozotocin (150 mg/kg body weight) to give diabetic mouse models. Two weeks after streptozotocin injection, diabetic mice were administered 10 mg/kg midazolam by intraperitoneal injection daily for 2 days, and vascular leakage was investigated. The body weight of mice were measure in normal (19.9±0.3 g), diabetic (17.7±0.3 g), and midazolam supplemented diabetic mice (17.6±0.3 g). Blood glucose levels were also monitored in normal (123.5±6.5 mg/dL), diabetic (505.0±89.0 mg/dL), and midazolam supplemented diabetic mice (500.3±63.3 mg/dL). The mice were anesthetized with 3% isoflurane, and 1.25 mg of FITC-dextran was injected into the right ventricle of each mouse and allowed to circulate for 5 min. The lungs were dissected, fixed, and embedded in OCT compound. Cryosections of lungs were stained with isolectin B4 and DAPI. Representative images of vascular leakage in lungs are shown in additional FIG. 21A. Scale bars, 100 μm. The results of vascular leakage quantitatively analyzed by measuring the fluorescence intensity of FITC-dextran in the lungs are shown in additional FIG. 21B (n=4 for normal and diabetic, n=6 for diabetic+Midazolam).

Cc1ncc2n1-c1ccc(Cl)cc1C(c1ccccc1F)=NC2 [midazolam]
body weight ([1]; Test Example 15: midazolam supplemented diabetic mice, 10 mg/kg intraperitoneal daily for 14 days): 17.0 ± 0.3 g | body weight ([1]; Test Example 16: midazolam supplemented diabetic mice, 10 mg/kg intraperitoneal daily for 2 days): 17.7 ± 0.3 g | body weight ([1]; Test Example 17: midazolam supplemented diabetic mice, 10 mg/kg intraperitoneal daily for 2 days): 17.6 ± 0.3 g | weight of mice ([1]; Test Example 18: midazolam supplemented diabetic mice, 10 mg/kg intraperitoneal daily for 14 days, B16F10 cells): 16.2 ± 0.5 g | pulmonary vascular leakage (FITC-dextran extravasation) (lungs of diabetic mice): blocked by midazolam administration
